One test has as its target T1, dopamine D-2 receptor (Rattus norvegicus, UniProt P61169).
T1 construct: homogenized limbic brain tissue is incubated with; from tissue; host or cells: limbic brain tissue, homogenized
As to the kind of experiment: Affinity for the dopamine D-2 receptor, 3H-spiroperidol binding in homogenized limbic brain tissue.

Test [1] addresses T2, 5-HT1A serotonin receptor (Rattus norvegicus, UniProt P19327).
T2 sequence (P19327 1-422): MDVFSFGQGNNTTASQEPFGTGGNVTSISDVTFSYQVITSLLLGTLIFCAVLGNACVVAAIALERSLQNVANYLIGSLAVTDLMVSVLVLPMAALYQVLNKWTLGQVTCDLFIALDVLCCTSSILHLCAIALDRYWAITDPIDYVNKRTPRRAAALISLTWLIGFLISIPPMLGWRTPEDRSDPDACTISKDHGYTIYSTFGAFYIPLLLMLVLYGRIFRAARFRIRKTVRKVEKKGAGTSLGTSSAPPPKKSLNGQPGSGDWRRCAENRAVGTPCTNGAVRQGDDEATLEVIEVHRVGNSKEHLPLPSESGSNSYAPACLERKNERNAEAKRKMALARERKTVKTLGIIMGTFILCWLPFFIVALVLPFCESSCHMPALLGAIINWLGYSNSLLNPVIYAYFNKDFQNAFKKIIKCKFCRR
The note with it: standard for anxiolytic activity, comparison substance; cited from earlier work.

The target in test [2] is T2, 5-HT1A serotonin receptor. As to the kind of experiment: Displacement of [3H] 8-OHDPAT from the 5-HT1A serotonin receptor. Type of test: binding. The text has this: High affinity for the serotonin 5-HT1A receptor was established by testing the claimed compound's ability to displace [^3 H] 8-OHDPAT (dipropylaminotetralin) from the 5-HT1A serotonin receptor following the procedure of Hall et al., J. Neurochem. 44, 1685 (1985). […] The anxiolytic activity of buspirone is believed to be, at least partially, due to its 5-HT1A receptor affinity (Vander Maclen et al., Eur. J. Pharmacol. 1986, 129 (1-2) 133-130).
On the technique in general: In a radioligand displacement assay an active substance lowers the binding of a labelled ligand.

The mark [3] stands for this setting: 3H-spiroperidol, limbic brain tissue, read-out: IC50 D2 Spiper.

The text below walks through data of patent US5958965A, “4-aminoethoxy indoles” (American Home Products Corporation, priority 1997, dated 1999).

Where two headings read alike, the source gives them in different places.

T1 sequence (P61169 whole entry): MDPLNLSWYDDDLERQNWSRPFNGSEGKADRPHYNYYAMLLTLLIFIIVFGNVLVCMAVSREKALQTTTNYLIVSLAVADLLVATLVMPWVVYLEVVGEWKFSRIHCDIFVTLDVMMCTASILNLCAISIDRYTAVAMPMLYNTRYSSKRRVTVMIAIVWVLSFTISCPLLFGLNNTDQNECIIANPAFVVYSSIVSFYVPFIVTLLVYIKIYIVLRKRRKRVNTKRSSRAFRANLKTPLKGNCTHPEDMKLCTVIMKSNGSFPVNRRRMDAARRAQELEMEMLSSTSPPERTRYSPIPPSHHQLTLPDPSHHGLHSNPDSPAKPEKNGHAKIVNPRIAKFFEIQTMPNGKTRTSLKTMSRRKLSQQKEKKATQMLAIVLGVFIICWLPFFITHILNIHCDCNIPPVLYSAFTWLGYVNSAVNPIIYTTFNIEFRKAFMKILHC

The term IC50 denotes the concentration that inhibits the measured activity by half. As to `Clc1ccc(OCCNCc2cccs2)c2c(Cl)c[nH]c12` [Example 1f, Thien-2-ylmethyl-[2-(3,7-dichloro-1H-indol-4-yloxy)-ethyl]-amine], the IC50 on dopamine D-2 receptor (setting [3]) was determined as 405 nM. `O=C1CC2(CCCC2)CC(=O)N1CCCCN1CCN(c2ncccn2)CC1` [buspirone]: in test [1], the “affinity for the 5-HT1A serotonin receptor” value is “potent affinity”.

Turning to `O=C(c1c[nH]c2cccc(OCCNCc3ccccc3)c12)C(F)(F)F` [Example 3a, 1-[4-(2-Benzylamino-ethoxy)-1H-indol-3-yl]-2,2,2-trifluoro-ethanone], the IC50 in test [2] was 60 nM; at dopamine D-2 receptor (setting [3]), 286 nM. Turning to `O=C(c1c[nH]c2c(Cl)ccc(OCCNCc3ccccc3)c12)C(F)(F)F` [Example 2c, 1-[4-(2-Benzylamino-ethoxy)-7-chloro-1H-indol-3-yl]-2,2,2-trifluoro-ethanone], in test [2], the concentration for half-maximal inhibition (IC50) was determined as 102 nM. Consider `c1ccc(CNCCOc2cccc3[nH]ccc23)cc1` [Example 3b, N-Benzyl-[2-(1H-indol-4-yloxy)]-ethylamine], for which the figures for the half-maximal inhibitory concentration (IC50) (in test [2]; at dopamine D-2 receptor) were 36 nM and 501 nM, respectively. On the same counts, the results for `Clc1ccc(OCCNCc2ccccc2)c2cc[nH]c12` [Example 1b, Benzyl-[2-(7-chloro-1H-indol-4-yloxy)-ethyl]-amine] are 386 nM and 183 nM. Consider `c1ccc(CCCCNCCOc2cccc3[nH]ccc23)cc1` [Example 1a, [2-(1 H-Indol-4-yloxy)-ethyl]-(4-phenyl-butyl)-amine], for which the IC50 was found to be 0.71 nM in test [2] and 184 nM at dopamine D-2 receptor. Take `Clc1c[nH]c2cccc(OCCNCCCCc3ccccc3)c12` [Example 2a, [2-(3-Chloro-1H-indol-4-yloxy)-ethyl]-(4-phenyl-butyl)-amine]: the values for the IC50 (in test [2]; on dopamine D-2 receptor (setting [3])) were 0.99 nM and 193 nM, respectively. In the case of `Clc1ccc(OCCNCc2ccccc2)c2c(Cl)c[nH]c12` [Example 1c, Benzyl-[2-(3,7-dichloro-1H-indol-4-yloxy)-ethyl]-amine], the results for the half-inhibitory concentration (IC50) (in test [2]; at dopamine D-2 receptor (setting [3])) were 438 nM and 284 nM, respectively.
